In PubChem BioAssay (NCI):
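These data come from cells grown in 96-well plates and exposed to compound for 48 hours at five concentrations. GI50 = concentration required for 50% inhibition of growth. TGI: total growth inhibition.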

What was measured:
Experiment in all cases: growth of human tumour cells (NCI), 48 h
[1] = system: OVCAR-5 ovarian
[2] = system: MOLT-4 leukemia
[3] = system: 786-0 renal
[4] = system: TK-10 renal
[5] = system: HCT-15 colon
[6] = system: HT29 colon
[7] = system: SF-295 CNS
[8] = system: HOP-92 NSCLC
[9] = system: UACC-62 melanoma
[10] = system: SK-MEL-2 melanoma

Row | SMILES | TGI [1] [µM] | TGI [2] [µM] | TGI [3] [µM] | TGI [4] [µM] | TGI [5] [µM] | TGI [6] [µM] | TGI [7] [µM] | TGI [8] [µM] | TGI [9] [µM] | TGI [10] [µM] | GI50 [1] [µM] | GI50 [2] [µM] | GI50 [6] [µM] | GI50 [9] [µM] | GI50 [10] [µM]
1 | Cc1cccc(C2ON=C(c3ccccc3)N2C23CC4CC(CC(C4)C2)C3)c1 (centres undefined) | > 10 | > 10 | > 10 | > 10 | > 10 | > 10 | > 10 | > 10 | > 10 | > 10 | – | – | – | – | –
2 | CN(C)c1ccc(/C=C/C(=O)c2ccc(O)cc2)cc1 | > 100 | 21 | > 78.3 | > 100 | 40.4 | 29.9 | > 41.6 | > 100 | 19.3 | > 49.1 | – | – | – | – | –
3 | C1CNOCCCONCCCNOCCCONC1 | > 100 | > 100 | > 100 | 84.5 | > 100 | > 100 | > 100 | 82.1 | > 100 | > 100 | – | – | – | – | –
4 | C[C@]12C=CC(=O)C=C1CC[C@@H]1[C@@H]2CC[C@@]2(C)[C@H]1CC[C@]2(O)C(N)=O | > 100 | > 100 | > 100 | > 100 | > 100 | > 100 | > 100 | > 100 | > 100 | > 100 | – | – | – | – | –
5 | Clc1ccc(Nc2nnc(CNc3ccc(-c4nnc(Nc5ccc(Cl)cc5)s4)cc3)s2)cc1 | > 100 | > 100 | 75.1 | > 100 | > 100 | 24.4 | 84.3 | > 100 | 64.9 | 67.6 | – | – | – | – | –
6 | CC(C)/C=C1\CCC(CN(C)C)C1=O (centres undefined) | 15.3 | 3.48 | 1.25 | 5.96 | 4.68 | 4.84 | 31.2 | 3.47 | 32.6 | 14.3 | – | – | – | – | –
7 | O=C(CNc1ccccn1)Nn1cnc2ccc(S(=O)(=O)Nc3ccccn3)cc2c1=O | > 100 | > 100 | > 100 | > 100 | > 100 | > 100 | > 100 | > 100 | > 100 | > 100 | – | – | – | – | –
8 | O=C1Oc2ccccc2C1C/C(=N\Nc1ccccc1)c1ccccc1O (centres undefined) | > 100 | 78.7 | > 100 | > 100 | > 100 | 78.5 | > 100 | 78.8 | > 100 | > 100 | – | – | – | – | –
9 | COc1ccc(C(O)/C(=N/N)c2nc3ccc(Cl)cc3[nH]c2=O)cc1 (centres undefined) | > 100 | > 100 | > 100 | > 100 | > 100 | > 100 | > 100 | > 100 | > 100 | > 100 | – | – | – | – | –
10 | COc1ccc(Nc2nc3ccccc3n3cccc23)cc1OC | > 100 | 43.3 | 35 | 39 | 31.6 | > 100 | 35.4 | > 100 | 27.4 | 33.3 | – | – | – | – | –
11 | CC(C)(C)N=CN1C=Cc2nc3ccccc3cc2C1 | > 100 | > 100 | > 100 | > 100 | > 100 | > 100 | > 100 | > 100 | > 100 | > 100 | – | – | – | – | –
12 | O=C1[C@@H]2C(c3ccc(Br)cc3)=NO[C@@H]2C(=O)N1c1ccc(Cc2ccc(N3C(=O)[C@H]4C(c5ccc(Br)cc5)=NO[C@H]4C3=O)cc2)cc1 | > 40 | > 40 | > 3.48 | > 40 | > 40 | > 40 | > 3.48 | > 40 | > 40 | > 40 | > 40 | > 40 | > 40 | > 40 | > 40
13 | C[C@@H](CC(O)C(O)C(C)(C)O)C1CCC23CC12CCC1[C@@]2(C)CCC(O)C(C)(C)C2CC(OC2OC(CO)C(O)C(O)C2O)[C@]13C (some centres undefined) | > 10 | > 10 | > 10 | > 10 | > 10 | > 10 | > 10 | > 10 | > 10 | > 10 | – | – | – | – | –
14 | CS(=O)(=O)N1CC(CCl)c2ccc(NO)cc21 (centres undefined) | 40.5 | 19 | 28 | 51.1 | 28.6 | 29.4 | 61.9 | 27.9 | 26.5 | 41.3 | – | – | – | – | –
15 | COC(=O)C(=O)C(C(=O)OC)C(=O)C(=O)Nc1c(C)cccc1C (centres undefined) | > 100 | > 100 | > 100 | > 100 | > 100 | > 100 | > 100 | > 100 | > 100 | > 100 | – | – | – | – | –
16 | Nc1nc2c(N)cc(C(F)(F)F)cc2nc1-c1ccccc1 | > 100 | > 100 | > 100 | > 100 | > 100 | – | > 100 | > 100 | > 100 | > 100 | – | – | – | – | –
